Measured values as given in paper PMC6482079 (European journal of pharmaceutical sciences : official …, 2019).

Assays:
Test in all cases: microbe, parasite or virus in culture
Type in all cases: cell-based, influenza A virus
Details in all cases: for Drug sensitivity: sensitivity of the strain to the named drug
A/WSN/1933 (H1N1) = test system: A/WSN/1933 (H1N1)
[1] = test system: A/Washington/29/2009 (H1N1)
A/Texas/04/2009 (H1N1) = test system: A/Texas/04/2009 (H1N1)
[2] = test system: A/Switzerland/9715293/2013 (H3N2)
[3] = test system: A/North Carolina/39/2009 (H1N1)
[4] = test system: A/California/07/2009 (H1N1)
[5] = test system: A/Denmark/528/2009 (H1N1)

NC12CC3CC(CC(C3)C1)C2 [Amantadine, amantadine]
Drug sensitivity (A/WSN/1933 (H1N1)): Amantadine Resistant Oseltamivir Sensitive | Drug sensitivity [1]: Amantadine Resistant Oseltamivir Resistant | Drug sensitivity (A/Texas/04/2009 (H1N1)): Amantadine Resistant Oseltamivir Resistant | Drug sensitivity [2]: Amantadine Resistant Oseltamivir Sensitive | Drug sensitivity [3]: Amantadine Resistant Oseltamivir Resistant | Drug sensitivity [4]: Amantadine Resistant Oseltamivir Sensitive | Drug sensitivity [5]: Amantadine Resistant Oseltamivir Resistant

Cc1cc(OCc2nnc(SC3CCCC3)n2-c2cccnc2)ccc1-c1ccc(S(C)(=O)=O)cc1 [NMS-873]
SI (selectivity index) (A/WSN/1933 (H1N1); CC50/EC50): 74 | EC50 (A/WSN/1933 (H1N1); Influenza A virus, H1N1|WSN, MDCK): 37 ± 2 nM | SI (selectivity index) ([1]; CC50/EC50): 66 | EC50 ([1]; Influenza A virus, H1N1, MDCK): 41 ± 5 nM | SI (selectivity index) (A/Texas/04/2009 (H1N1); CC50/EC50): 71 | EC50 (A/Texas/04/2009 (H1N1); Influenza A virus, H1N1, MDCK): 38 ± 5 nM | SI (selectivity index) ([2]; CC50/EC50): 129 | EC50 ([2]; Influenza A virus, H3N2, MDCK): 21 ± 2 nM | SI (selectivity index) ([3]; CC50/EC50): 78 | EC50 ([3]; Influenza A virus, H1N1, MDCK): 35 ± 5 nM | SI (selectivity index) ([4]; CC50/EC50): 49 | EC50 ([4]; Influenza A virus, H1N1, MDCK): 56 ± 5 nM | SI (selectivity index) ([5]; CC50/EC50): 70 | EC50 ([5]; Influenza A virus, H1N1, MDCK): 39 ± 4 nM

CCC(CC)O[C@@H]1C=C(C(=O)O)C[C@H](N)[C@H]1NC(C)=O [Oseltamivir carboxylate]
Drug sensitivity (A/WSN/1933 (H1N1)): Sensitive | Drug sensitivity [1]: Amantadine Resistant Oseltamivir Resistant | Drug sensitivity (A/Texas/04/2009 (H1N1)): Amantadine Resistant Oseltamivir Resistant | Drug sensitivity [2]: Sensitive | Drug sensitivity [3]: Amantadine Resistant Oseltamivir Resistant | Drug sensitivity [4]: Sensitive | Drug sensitivity [5]: Amantadine Resistant Oseltamivir Resistant
